In PMC2908295 (Journal of medicinal chemistry, 2010):
Square brackets hold non-standard residues; d marks the D form. Peptide text beside a SMILES is read from it. * marks the point of attachment. X1 = C[C@@H](CCC[N+](C)(C)C)C(=O)*; Tle = CC(C)(C)[C@H](N)C(=O)O

How the values were obtained:
male Sprague-Dawley rats [1] = assay: Hotplate model; format: in vivo, rat
rats = assay: Chung model for neuropathic pain; format: in vivo; settings: rat, single dose of 10 mg/kg i.p., n = 5
PK analysis by LC/MS = format: in vivo; settings: rat, iv, 1 mg/kg
male Sprague-Dawley rats [2] = assay: Acetic acid writhing model; format: in vivo; settings: rat, i.v., 3% acetic acid i.p. 20 min after drug, n = 3 for all doses
male Sprague-Dawley rats [3] = assay: Hypothermia assay; format: in vivo; settings: rat
[4] = PK analysis by NTR-1 binding activity in plasma; format: in vivo; settings: rat, i.v., NTR-1 radiolabel competition assay
[5] = rat hotplate, morphine 5 mg/kg i.p., n ≥ 6

Row | SMILES | maximal response (% of MPE), morphine benchmark (male Sprague-Dawley rats [1]; [5]) | time of return of response to baseline (male Sprague-Dawley rats [1]; [5]) | time to reach 100% MPE (male Sprague-Dawley rats [1]; [5]) | duration of maximal response, Chung model (rats) | Tmax (PK analysis by LC/MS; in vivo) | half-life (PK analysis by LC/MS; plasma) | EC50 acetic acid writhing (male Sprague-Dawley rats [2]) | maximum response latency (male Sprague-Dawley rats [1]; rat hotplate, comparison with hydrolysis products, cut-off 30 s) | EC50 hotplate, i.m. (male Sprague-Dawley rats [1]; rat, i.m., assessed after 60 min, n = 3 for all doses) | EC50 hotplate, i.p. (male Sprague-Dawley rats [1]; rat, i.p., assessed after 60 min, n = 3 for all doses) | EC50 hotplate, i.v. (male Sprague-Dawley rats [1]; rat, i.v., assessed after 60 min, n = 3 for all doses) | EC50 hotplate, s.c. (male Sprague-Dawley rats [1]; rat, s.c., assessed after 60 min, n = 3 for all doses) | duration of drop in core body temperature (male Sprague-Dawley rats [3]; 10 mg/kg i.v., n ≥ 4) | EC50 hypothermia (area under the PD curves) (male Sprague-Dawley rats [3]; i.v., rectal temperature every 15 min for 4 h, n = 3 for all doses) | time until plasma NTR-1 binding returned to level of non-treated animals [4]
1 | CN1CC[C@]23c4c5ccc(O)c4O[C@H]2[C@@H](O)C=C[C@H]3[C@H]1C5 [morphine, reference compound] | 100% | ≤ 200 min | 15 to 30 min |  |  |  |  |  |  |  |  |  |  |  | 
2 | CC(C)C[C@H](NC(=O)[C@@H](NC(=O)[C@H](Cc1ccc(O)cc1)NC(=O)[C@@H]1CCCN1C(=O)[C@H](CCCNC(=N)N)NC(=O)[C@@H](C)CCC[N+](C)(C)C)C(C)(C)C)C(=O)O [Compound 1] (X1-RPY[Tle]L-OH; N-terminus assumed) |  |  |  | maintained for over one hour | ≤ 5 min | 26.3 min | 0.16 mg/kg | 30 s | 2.45 mg/kg | 2.00 mg/kg | 2.64 mg/kg | 3.84 mg/kg | > 4 h | 0.78 mg/kg | 60 min
